Measured values as given in publication doi:10.1101/2023.11.02.565282v1 (biorxiv, 2023).
Where two headings read alike, the source gives them in different places.

Columns and labels:
GluK2(VCQ)2a [1] = biological target: T1, GluK2(VCQ)2a (Rattus norvegicus, UniProt P42260, I567V/Y571C); assay: calcium-sensitive fluorescence assay; type: cell-based
GluK2(VCQ)2a [2] = biological target: T1, GluK2(VCQ)2a; assay: calcium-sensitive fluorescence assay; type: cell-based; conditions: agonist; with 150 µM BPAM344; Fluo buffer pH 7.4

T1 sequence (P42260 32-908 I567V/Y571C): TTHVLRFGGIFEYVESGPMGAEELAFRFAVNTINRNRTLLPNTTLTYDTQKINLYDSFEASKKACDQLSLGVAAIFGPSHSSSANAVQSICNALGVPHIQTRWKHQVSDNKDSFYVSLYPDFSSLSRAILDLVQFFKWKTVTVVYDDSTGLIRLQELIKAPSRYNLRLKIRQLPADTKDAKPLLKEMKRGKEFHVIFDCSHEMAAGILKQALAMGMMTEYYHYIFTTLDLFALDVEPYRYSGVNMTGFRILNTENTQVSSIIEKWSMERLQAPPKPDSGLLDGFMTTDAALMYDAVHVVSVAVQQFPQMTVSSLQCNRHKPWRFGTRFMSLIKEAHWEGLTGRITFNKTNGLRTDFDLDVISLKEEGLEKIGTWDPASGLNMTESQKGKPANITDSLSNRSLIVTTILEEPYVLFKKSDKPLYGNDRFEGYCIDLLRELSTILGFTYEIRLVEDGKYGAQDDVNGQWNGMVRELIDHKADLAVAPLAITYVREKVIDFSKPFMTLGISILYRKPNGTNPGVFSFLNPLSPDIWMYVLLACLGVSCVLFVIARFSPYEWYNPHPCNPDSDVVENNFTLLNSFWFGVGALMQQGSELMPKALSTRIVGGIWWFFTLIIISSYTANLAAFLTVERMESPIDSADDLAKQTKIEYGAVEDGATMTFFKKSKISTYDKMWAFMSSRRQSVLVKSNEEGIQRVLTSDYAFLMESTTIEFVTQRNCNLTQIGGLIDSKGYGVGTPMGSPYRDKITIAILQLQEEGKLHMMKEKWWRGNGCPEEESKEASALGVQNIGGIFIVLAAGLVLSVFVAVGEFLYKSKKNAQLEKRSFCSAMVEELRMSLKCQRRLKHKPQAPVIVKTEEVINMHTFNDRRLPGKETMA

Compound | EC50 (GluK2(VCQ)2a [1]) [µM] | EC50 (GluK2(VCQ)2a [2]) [µM]
O=S1(=O)NCN(C2CC2)c2ccc(F)cc21 [BPAM344] | 75.4 | 
C/C(=C/C=C/[C@@H](C)C(=O)O)[C@H]1CN[C@H](C(=O)O)[C@H]1CC(=O)O [domoate] |  | 1.33
